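Grown in 96-well plates, cells were treated for 48 hours with each compound at five concentrations. Insufficient inhibition: endpoint recorded as highest concentration tested. TGI marks complete inhibition of growth.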
Experiments:
Test in all cases: NCI-60 cell line screen, 48 h
[1] = system: U251 CNS
[2] = system: CCRF-CEM leukemia
[3] = system: SK-OV-3 ovarian
[4] = system: OVCAR-4 ovarian
[5] = system: HOP-92 NSCLC
[6] = system: HCT-15 colon
[7] = system: UACC-62 melanoma
[8] = system: K-562 leukemia
[9] = system: NCI-H522 lung
[10] = system: HOP-62 NSCLC
[11] = system: UACC-257 melanoma
[12] = system: SF-268 CNS
[13] = system: CAKI-1 renal
[14] = system: IGROV1 ovarian
[15] = system: DU-145 prostate
[16] = system: HT29 colon
[17] = system: BT-549 breast

Structure (SMILES)	TGI [1] [µM]	TGI [2] [µM]	TGI [3] [µM]	TGI [4] [µM]	TGI [5] [µM]	TGI [6] [µM]	TGI [7] [µM]	TGI [8] [µM]	TGI [9] [µM]	TGI [10] [µM]	TGI [11] [µM]	TGI [12] [µM]	TGI [13] [µM]	TGI [14] [µM]	TGI [15] [µM]	TGI [16] [µM]	TGI [17] [µM]
N#CC(C(=S)Nc1ccccc1)=C1Nc2ccccc2N1	> 10	> 10	> 10	> 10	> 10	> 10	> 10	> 10	> 10	> 10	> 10	> 10	> 10				
CCC12CN(C(=O)OC)C3C(Br)C1CCC(=O)C32 (stereo not drawn)	> 100	> 100	> 100	> 100	> 100	> 100	> 100	> 100	> 100	> 100	> 100	> 100	> 100	> 100	> 100	> 100	
CNc1cc(Cl)ccc1C(=O)N1CCC[C@H]1CO	> 100	> 100	> 100	> 100		> 100	> 100		> 100	> 100	> 100	> 100	> 100	> 100	> 100	> 100	> 100
NC(=S)N/N=C(/CCN1CCCC1)CC(C1=C(O)C2=CCCCC2OC1=O)c1ccccc1 (stereo not drawn)	> 100	> 100	> 100	> 100	> 100	> 100	> 100	> 100	> 100	> 100	> 100	> 100	> 100	> 100		> 100	
COc1ccc([C@H]2[C@@H]3CCc4ccccc4C3=NN2C(N)=S)cc1OC	> 100	> 100	> 100	> 100	> 100	> 100	> 100	66.9	59.7	> 100	> 100	> 100		> 100		> 100	
O=C(Cn1c2c(c3ccccc31)CCCC2)N1CCOCC1		> 100	> 100	> 100	> 100	> 100	> 100	> 100		> 100	> 100	> 100	> 100	> 100		> 100	> 100
O=C1NC(=O)C23C(=O)NC(=O)C12C1C=CC3CC1 (stereo not drawn)	> 10	> 10	> 10	> 10	> 10	> 10	> 10	> 10	> 10	> 10	> 10	> 10	> 10	> 10	> 10	> 10	
